In the first assay the target is T1, PDE4A5 (Rattus norvegicus, UniProt P54748).
T1 construct: targets used in the assays are full-length proteins (as opposed to simply the catalytic domain); expressed in transfected cells; host or cells: Schizosaccharomyces pombe, PDE gene integrated in place of cgs2
T1 sequence (P54748 1-844): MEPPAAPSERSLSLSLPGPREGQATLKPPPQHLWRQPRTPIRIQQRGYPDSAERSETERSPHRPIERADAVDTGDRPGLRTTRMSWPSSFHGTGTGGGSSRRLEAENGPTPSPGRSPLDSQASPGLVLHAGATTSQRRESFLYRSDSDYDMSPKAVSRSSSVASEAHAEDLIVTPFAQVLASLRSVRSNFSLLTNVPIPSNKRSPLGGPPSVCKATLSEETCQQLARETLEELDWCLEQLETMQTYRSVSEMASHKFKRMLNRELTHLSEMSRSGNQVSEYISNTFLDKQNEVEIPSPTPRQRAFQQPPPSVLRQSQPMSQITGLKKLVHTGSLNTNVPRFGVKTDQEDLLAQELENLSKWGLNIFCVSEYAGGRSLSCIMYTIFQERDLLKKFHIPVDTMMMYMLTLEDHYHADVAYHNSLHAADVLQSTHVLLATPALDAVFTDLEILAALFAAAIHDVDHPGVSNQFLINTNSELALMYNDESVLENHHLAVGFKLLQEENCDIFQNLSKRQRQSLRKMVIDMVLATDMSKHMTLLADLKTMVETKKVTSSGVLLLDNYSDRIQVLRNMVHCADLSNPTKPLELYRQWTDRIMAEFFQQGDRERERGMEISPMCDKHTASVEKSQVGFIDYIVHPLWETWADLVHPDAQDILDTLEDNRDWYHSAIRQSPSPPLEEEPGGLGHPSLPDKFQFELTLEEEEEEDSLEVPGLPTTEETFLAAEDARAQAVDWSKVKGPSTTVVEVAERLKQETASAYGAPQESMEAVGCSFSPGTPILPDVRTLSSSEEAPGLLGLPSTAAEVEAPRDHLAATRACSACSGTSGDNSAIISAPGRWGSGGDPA
As to the kind of experiment: 5FOA growth assay in fission yeast strain expressing PDE4A5. The assay is classed as cell-based. As to conditions: 20 uM. How it is done: High throughput drug screens were carried out at the Broad Institute's Chemical Biology Program screening facility (Broad Institute, Cambridge, Mass.). Depending upon the strain, cultures were pregrown to exponential phase in EMM complete medium containing from 0.5 to 2.5 mM cAMP to repress fbp1-ura4 transcription. Cells were collected by centrifugation, resuspended in 5FOA medium, and 25 μl were transferred to 384-well microtiter dishes (untreated, with flat clear bottoms) that had been pre-filled with 25 μl 5FOA medium and pre-pinned with 100 nl of compounds (stock solutions were generally 10 mM) from a subset of the Prestwick Bioactive and the Microsource Spectrum compound libraries. Starting cell concentrations ranged from 0.5×10^5 to 4×10^5 cells/ml depending on the screening strain. […] Other positive control dishes contained 5 mM cAMP in the 5FOA medium. Cultures were grown for 48 hours at 30° C., sealed in an airtight container with moist paper towels to prevent evaporation. Optical densities (OD600) of cultures were measured using a microplate reader. Bioinformatic analysis of the results to determine composite Z scores was performed as previously described^30, 31.
Cells were pregrown in EMM medium [MP Biomedicals (Solon, Ohio), 3% glucose, filter-sterilized to avoid carmelization, which would introduce variability into the optical density of the medium] containing from 0 mM to 2.5 mM cAMP (or either 0.5 mM or 1.0 mM cGMP). This was to repress expression of the fbp1-ura4 reporter prior to exposure of cells to 5FOA medium. Cells were grown at 30° C. to exponential phase (approximately 10^7 cells/ml). Cells were collected by centrifugation and resuspended in 5FOA medium, and 25 μl were transferred to 384-well microtiter dishes (untreated, with flat clear bottoms) that had been pre-filled with 25 μl 5FOA medium and pre-pinned with 100 nl of compounds (stock solutions were generally 10 mM). Starting cell concentrations ranged from 0.5×10^5 to 4×10^5 cells/ml depending on the screening strain. […] Other positive control dishes contained 5 mM cAMP in the 5FOA medium for PDEs that lack appropriate control compounds. Cultures were grown for 48 hours at 30° C., sealed in an airtight container with moist paper towels to prevent evaporation. Optical densities (OD600) of cultures were measured using a microplate reader. Bioinformatic analysis of the results to determine composite Z scores was performed as previously described (1, 3).
As for `COC(=O)C1/C(=C/c2cccc(OC)c2O)C(=O)N(c2ccccc2F)C1C` (centres unmarked) [2008, C21], the “1 Assay (20 uM) 4A5” value was determined as 1.80 ND ND ND ND.

In the case of `COC(=O)C1=C(C)N(c2ccc(C(C)C)cc2)C(=O)/C1=C\c1ccco1` [2008, 019], the “1 Assay (20 uM) 4A5” value is given as 1.73 ND ND ND ND.

Still in this assay, the particulars now being: 20 uM; PDE 4A5.
For the molecule `CCc1ccc2c(c1)c1nc3ccccc3nc1n2CC` [2015, P06], the “1 Assay (20 uM) 4A5” value is on record as 51.82 ND ND ND ND. `c1ccc(CCn2c3ccccc3c3nc4ccccc4nc32)cc1` [2019, G03]: the “1 Assay (20 uM) 4A5” value was found to be 49.61 ND ND ND ND. Same read-out and setting: as for `CCCCn1c2ccccc2c2nc3ccccc3nc21` [2013, I20], the figure is 71.82 ND ND ND ND; as for `CC(C)Cn1c2ccc(Br)cc2c2nc3ccccc3nc21` [2015, L04], 57.60 ND ND ND ND. Turning to `C=Cn1c2ccccc2c2nc3ccccc3nc21` [2033, H06], the “1 Assay (20 uM) 4A5” value was determined as 66.58 ND ND ND ND.

The assay is the same for the next values; noted with them: high throughput 5FOA growth screen.
For `Cc1nc(NCCc2ccccc2)c2c3c(sc2n1)CCCC3` [Compound 2008G09], the “Composite Z score, PDE4A5” value is listed as −4.881. In the case of `Cc1c(C(=O)NCCC(C)C)sc2ncnc(N3CCOCC3)c12` [Compound 2040F13], the “Composite Z score, PDE4A5” value was −0.722. In the case of `CCOC(CNc1nc(C)nc2sc3c(c12)CCCC3)OCC` [Compound 2040D04], the “Composite Z score, PDE4A5” value is −0.897. Same read-out and setting: for `Cc1c(C(=O)N2CCCCCC2)sc2ncnc(N3CCN(c4ccccc4)CC3)c12` [Compound 2041I21] the value was −0.939. With `COc1cc(OC)c(NC(=O)c2sc3ncnc(N4CCCCC4C)c3c2C)cc1Cl` (centres unmarked) [Compound 2040J10], the “Composite Z score, PDE4A5” value turned out to be 0.4891. Regarding `CCNc1nc(SCC(=O)NC(=O)NCc2ccccc2)nc2sc3c(c12)CCN(C)C3` [Compound 2054N05], the “Composite Z score, PDE4A5” value is on record as 1.0728.

Take `CCC(C)NC(=O)c1sc2nc(C)nc(N(C)c3ccc(C(C)C)cc3)c2c1C` (centres unmarked) [Compound 2041K04]: the “Composite Z score, PDE4A5” value came out at 10.539. Regarding `CCNc1nc(SCC(=O)OCC)nc2sc3c(c12)CCC(C)C3` (centres unmarked) [Compound 2053H16], the “Composite Z score, PDE4A5” value was −0.22. For `CCOC(=O)c1sc2nc(C)nc(N3CCC(C)CC3)c2c1C` [Compound 2007D06], the “Composite Z score, PDE4A5” value is −10.3. For `Cc1c(C(=O)N(C)Cc2ccccc2)sc2ncnc(N3CCN(c4ccccc4)CC3)c12` [Compound 2041G21], the “Composite Z score, PDE4A5” value was 0.7964. As to `CCOC(=O)c1sc2nc(Cc3ccccc3)nc(NCCC3CCCCC3)c2c1C` [Compound 2040F07], the “Composite Z score, PDE4A5” value came out at 2.5342.

Consider `CC1CC(=O)N(c2ncnc3sc4c(c23)CCCC4)N1` (centres unmarked) [2054 E16], for which the “Composite Z score, PDE4A5” value is 0.5516.

For `COc1ccc(CCNc2ncnc3sc4c(c23)CCCC4)cc1` [Compound 2012B19], the “Composite Z score, PDE4A5” value is recorded as 20.422.

Regarding `c1nc(NCCCN2CCOCC2)c2c3c(sc2n1)CCCC3` [Compound 2051N22], the “Composite Z score, PDE4A5” value is −4.733. Same read-out and setting: for `COc1ccccc1CNC(=O)c1sc2ncnc(N3CCN(c4ccccc4F)CC3)c2c1C` [2041 E21] the value was 2.4446; for `CCOC(=O)c1ccccc1NC(=O)c1sc2nc(C)nc(N(CC)CC)c2c1C` [Compound 2040P12], 1.3091; for `Cc1c(C(=O)Nc2ccc(F)cc2F)sc2ncnc(N(C)c3ccccc3)c12` [Compound 58-9], 111.95. `Cc1nc(N2CCCCC2)c2c(C)c(C(=O)Nc3cccc(C(F)(F)F)c3)sc2n1` [Compound 2040F10]: the “Composite Z score, PDE4A5” value came to 1.7466.

As to `O=C(O)CCNc1ncnc2sc3c(c12)CCCC3` [Compound 2012O16], the “Composite Z score, PDE4A5” value turned out to be 0.289. Turning to `CC(C)CC(Nc1ncnc2sc3c(c12)CCC3)C(=O)O` (centres unmarked) [Compound 2012H20], the “Composite Z score, PDE4A5” value is −0.102. Take `CCN(CC)c1nc(C)nc2sc(C(=O)N3CCCCCC3)c(C)c12` [Compound 2040N12]: the “Composite Z score, PDE4A5” value was −0.705. Turning to `CNc1nc(=S)[nH]c2sc3c(c12)CCCC3` [2054 E08], the “Composite Z score, PDE4A5” value is given as −0.378. With `O=C(/C=C/c1ccccc1)Nc1ncnc2sc3c(c12)CCC3` [Compound 2008K11], the “Composite Z score, PDE4A5” value was −4.329. In the case of `c1csc(CCNc2ncnc3sc4c(c23)CCC4)c1` [Compound 2005M12], the “Composite Z score, PDE4A5” value is listed as −0.574. In the case of `COc1ccc(NC(=O)c2sc3nc(C)nc(N(C)c4ccc(C(C)C)cc4)c3c2C)c(OC)c1` [Compound 2041I04], the “Composite Z score, PDE4A5” value amounted to 1.1627. With `Cc1c(C(=O)NCCC2CCCCC2)sc2ncnc(N3CCCCC3C)c12` (centres unmarked) [Compound 2040H10], the “Composite Z score, PDE4A5” value is 3.411. As for `Cc1cc(C)c(C)c(S(=O)(=O)N2CCN(c3ncnc4sc5c(c34)CCCC5)CC2)c1C` [Compound 2012L13], the “Composite Z score, PDE4A5” value is −0.334. As to `CCCCN(CC)C(=O)c1sc2ncnc(N3CCN(c4ccc(OC)cc4)CC3)c2c1C` [Compound 2007H06], the “Composite Z score, PDE4A5” value is recorded as −10.26. As for `CCN(CC)c1nc(C)nc2sc(C(=O)Nc3cc(Cl)ccc3OC)c(C)c12` [Compound 2040L12], the “Composite Z score, PDE4A5” value came out at 0.9752. Still for that read-out and setting: as for `OCCNc1ncnc2sc3c(c12)CCCC3` [Compound 2051H22], the figure is 2.0846; as for `Cc1nc(N2CCC(C)CC2)c2c(C)c(C(=O)N3CCN(c4ccc(F)cc4)CC3)sc2n1` [Compound 2040N10], 1.3723.

For the molecule `CCOC(=O)c1sc2nc(C)nc(N(C)Cc3ccccc3)c2c1C` [Compound 2007L04], the “Composite Z score, PDE4A5” value was determined as 13.196.

Consider `COc1cccc(NC(=O)c2sc3ncnc(N4CCc5ccccc5C4)c3c2C)c1` [Compound 2041K21], for which the “Composite Z score, PDE4A5” value is listed as 33.878. Consider `O=C(Nc1ncnc2sc3c(c12)CCCCC3)c1ccc(F)cc1` [Compound 2012F09], for which the “Composite Z score, PDE4A5” value was found to be 26.878.

On to `CCN(CC)c1ncnc2sc(C(=O)N(C)C3CCCCC3)c(C)c12` [Compound 2040J12], for which the “Composite Z score, PDE4A5” value is −0.227. `CCNc1nc(SCc2ccc(Cl)cc2)nc2sc3c(c12)CCN(C)C3` [Compound 2054P05]: the “Composite Z score, PDE4A5” value is given as 1.0025.

Another assay has as its system PDE4A, PDE4B, PDE4D, PDE7A, PDE7B, PDE8A, PDE3A. The assay is described as follows: Summary of PDE inhibitor profile. More on the design: key to PDE inhibitor profile (Table 17): (1): Strong PDE4A, PDE4B inhibitor; (2): Strong PDE4A inhibitor; (3): Strong PDE4B, moderate PDE4A inhibitor; (4): Moderate PDE4A, PDE4B inhibitor; (5): Moderate PDE4B inhibitor; key to inhibitor class, Table 15: (1): Strong PDE4A5 inhibitor; (2): Strong PDE4A, 4B inhibitor; Moderate PDE4D inhibitor; (3): Strong PDE4A. 4B inhibitor; (4): Strong PDE4A, 4B, PDE7A inhibitor: Weak PDE4D inhibitor.
Settings: not given
Take `COC(=O)C1/C(=C/c2cccc(OC)c2O)C(=O)N(c2ccccc2F)C1C` (centres unmarked) [2008, C21]: the “inhibitor class, Table 15” value is on record as 2008, C21 (2). Turning to `COC(=O)C1=C(C)N(c2ccc(C(C)C)cc2)C(=O)/C1=C\c1ccco1` [2008, 019], the “inhibitor class, Table 15” value is recorded as 2008, 019 (1).

Staying with this assay, now noted: overall classification, Table 17 footnotes.
Consider `CCc1ccc2c(c1)c1nc3ccccc3nc1n2CC` [2015, P06], for which the “PDE inhibitor profile (Table 17)” value is 2015, P06 (4). Still for that read-out and setting: as for `c1ccc(CCn2c3ccccc3c3nc4ccccc4nc32)cc1` [2019, G03], the figure is 2019, G03 (4); as for `CCCCn1c2ccccc2c2nc3ccccc3nc21` [2013, I20], 2013, I20 (1). The same measure, in the same setting: for `CC(C)Cn1c2ccc(Br)cc2c2nc3ccccc3nc21` [2015, L04] the value was 2015, L04 (1); for `C=Cn1c2ccccc2c2nc3ccccc3nc21` [2033, H06], 2033, H06 (4).

For the origin of these results see patent publication US20100227853A1, “INHIBITORS OF CYCLIC AMP PHOSPHODIESTERASES” (Trustees of Boston College, priority 2008, published 2010).
